In the supplement of paper PMC8671470:

Key:
Conditions in all cases: 72 h
KCL-22 [1] = experiment: cell viability (% survival relative to DMSO control, bortezomib = 0%); higher = less cytotoxic
Outline: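 Seeding density for each of the 10 AML and 5 CML cell lines was titrated to the linear growth range. Cells went into 384-well plates pre-printed in duplicate with compounds at 1, 10, 100, 1000 or 10000 nM and were held for 72 h at 37 °C with 5% CO2. CellTiter-Glo luminescence then provided the readout. Percent survival is expressed relative to vehicle at 100% and a 10 µM positive control at 0%, averaged over duplicates.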

Mono-Mac-6 = test system: Mono-Mac-6
Outline: (§1)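 The IC50 was read from log-logistic dose–response fits. Fifteen myeloid leukaemia lines were exposed for 72 h at 37 °C with 5% CO2 to five tenfold doses from 1 to 10,000 nM in duplicate. ATP luminescence, normalised to vehicle and to a 10 µM positive control, was fitted with four parameters.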

BV-173 = test system: BV-173
Outline: as §1

HL-60 = test system: HL-60
Outline: as §1

HEL = test system: HEL
Outline: as §1

MOLM-13 = test system: MOLM-13
Outline: as §1

KG-1 = test system: KG-1
Outline: as §1

KCL-22 [2] = test system: KCL-22
Outline: as §1

SHI-1 = test system: SHI-1
Outline: as §1

ML-2 = test system: ML-2
Outline: as §1

THP-1 = test system: THP-1
Outline: as §1

KU-812 = test system: KU-812
Outline: as §1

LAMA-84 = test system: LAMA-84
Outline: as §1

NOMO-1 = test system: NOMO-1
Outline: as §1

MV4-11 = test system: MV4-11
Outline: as §1

K-562 = test system: K-562
Outline: as §1

Structure (SMILES) | cell viability (KCL-22 [1]; 1 nM) | cell viability (KCL-22 [1]; 10 nM) | cell viability (KCL-22 [1]; 100 nM) | cell viability (KCL-22 [1]; 1000 nM) | cell viability (KCL-22 [1]; 10000 nM) | IC50 (cell viability) (Mono-Mac-6) | IC50 (cell viability) (BV-173) | IC50 (cell viability) (HL-60) | IC50 (cell viability) (HEL) | IC50 (cell viability) (MOLM-13) | IC50 (cell viability) (KG-1) | IC50 (cell viability) (KCL-22 [2]) | IC50 (cell viability) (SHI-1) | IC50 (cell viability) (ML-2) | IC50 (cell viability) (THP-1) | IC50 (cell viability) (KU-812) | IC50 (cell viability) (LAMA-84) | IC50 (cell viability) (NOMO-1) | IC50 (cell viability) (MV4-11) | IC50 (cell viability) (K-562)
C1CCC(C(CC2CCCCN2)C2CCCCC2)CC1.O=C(O)/C=C\C(=O)O (centres undefined) [Perhexiline] | 92% | 79.3% | 94.3% | 101% | 1.14% | 3.55 µM | 3.34 µM | 2.85 µM | 3.23 µM | 2.66 µM | 3.23 µM | 3.63 µM | 3.28 µM | 3.43 µM | 2.55 µM | 3.99 µM | 4.23 µM | 6.5 µM | 2.73 µM | 3.35 µM
OCCN1CCN(CCCN2c3ccccc3Sc3ccc(Cl)cc32)CC1 [Perphenazine] | 122% | 107% | 102% | 111% | 39.6% | > 10 µM | 5.91 µM | 5.06 µM | > 10 µM | 5.77 µM | 8.85 µM | 8.23 µM | > 10 µM | 7.38 µM | > 10 µM | 6.71 µM | 9.39 µM | > 10 µM | 3.54 µM | 2.87 µM
C=CCc1ccc2c(c1O)C(=O)c1ccccc1C2=O [R162] | 100% | 98.3% | 101% | 96.6% | 96.7% | > 10 µM | > 10 µM | > 10 µM | > 10 µM | > 10 µM | > 10 µM | > 10 µM | > 10 µM | > 10 µM | > 10 µM | > 10 µM | > 10 µM | > 10 µM | > 10 µM | > 10 µM
O=C(c1ccc(OCCN2CCCCC2)cc1)c1c(-c2ccc(O)cc2)sc2cc(O)ccc12 [Raloxifene] | 93.9% | 92.7% | 100% | 94.5% | 75.8% | > 10 µM | > 10 µM | > 10 µM | > 10 µM | > 10 µM | > 10 µM | > 10 µM | > 10 µM | > 10 µM | > 10 µM | > 10 µM | > 10 µM | > 10 µM | > 10 µM | > 10 µM
NC(=O)c1ncn([C@@H]2O[C@H](CO)[C@@H](O)[C@H]2O)n1 [Ribavirin] | 72.9% | 104% | 114% | 107% | 103% | > 10 µM | > 10 µM | > 10 µM | > 10 µM | > 10 µM | > 10 µM | > 10 µM | > 10 µM | > 10 µM | > 10 µM | > 10 µM | > 10 µM | > 10 µM | > 10 µM | > 10 µM
Nc1ncnc2c1ncn2[C@@H]1O[C@H](CSCC[C@H](N)C(=O)O)[C@@H](O)[C@H]1O [S-Adenosyl Homocysteine] | 97.5% | 113% | 98.5% | 94.5% | 102% | > 10 µM | > 10 µM | > 10 µM | > 10 µM | > 10 µM | > 10 µM | > 10 µM | > 10 µM | > 10 µM | > 10 µM | > 10 µM | > 10 µM | > 10 µM | > 10 µM | > 10 µM
CCCc1nn(C)c2c(O)nc(-c3cc(S(=O)(=O)N4CCN(C)CC4)ccc3OCC)nc12 [Sildenafil] | 89.7% | 102% | 97.5% | 88.7% | 113% | > 10 µM | > 10 µM | > 10 µM | > 10 µM | > 10 µM | > 10 µM | > 10 µM | > 10 µM | > 10 µM | > 10 µM | > 10 µM | > 10 µM | > 10 µM | > 10 µM | > 10 µM
Cc1coc2c1C(=O)C(=O)c1c-2ccc2c(C)cccc12 [Tanshinone I] | 125% | 100% | 108% | 111% | 59.5% | > 10 µM | > 10 µM | > 10 µM | > 10 µM | > 10 µM | > 10 µM | > 10 µM | > 10 µM | > 10 µM | > 10 µM | > 10 µM | > 10 µM | > 10 µM | > 10 µM | > 10 µM
CN(C/C=C/C#CC(C)(C)C)Cc1cccc2ccccc12 [Terbinafine] | 101% | 96.2% | 101% | 104% | 93.2% | > 10 µM | > 10 µM | > 10 µM | > 10 µM | > 10 µM | > 10 µM | > 10 µM | > 10 µM | > 10 µM | > 10 µM | > 10 µM | > 10 µM | > 10 µM | > 10 µM | > 10 µM
CCOC(=O)N1c2ccc(C(F)(F)F)cc2[C@@H](N(Cc2cc(C(F)(F)F)cc(C(F)(F)F)c2)C(=O)OC)C[C@H]1CC [Torcetrapib] | 105% | 107% | 126% | 98.3% | 86.8% | > 10 µM | 0.652 µM | > 10 µM | > 10 µM | > 10 µM | 9.96 µM | > 10 µM | > 10 µM | 7.83 µM | > 10 µM | > 10 µM | > 10 µM | > 10 µM | 7.03 µM | > 10 µM
Oc1cc(Cl)ccc1Oc1ccc(Cl)cc1Cl [Triclosan] | 115% | 98.3% | 89.7% | 105% | 65.5% | > 10 µM | > 10 µM | > 10 µM | > 10 µM | > 10 µM | > 10 µM | > 10 µM | > 10 µM | > 10 µM | > 10 µM | > 10 µM | > 10 µM | > 10 µM | > 10 µM | > 10 µM
COc1cc2c(NC3CCN(C)CC3)nc(N3CCCN(C)CC3)nc2cc1OCCCN(C)C [UNC0224] | 98.2% | 134% | 97.6% | 94.9% | 90.7% | > 10 µM | > 10 µM | > 10 µM | > 10 µM | > 10 µM | > 10 µM | > 10 µM | > 10 µM | > 10 µM | > 10 µM | > 10 µM | > 10 µM | > 10 µM | > 10 µM | > 10 µM
CC(C)C[C@H](NC(=O)[C@@H](O)[C@H](N)Cc1ccccc1)C(=O)O [Ubenimex] | 118% | 120% |  | 89.2% | 95.2% | > 10 µM | > 10 µM | > 10 µM | > 10 µM | > 10 µM | > 10 µM | > 10 µM | > 10 µM | > 10 µM | > 10 µM | > 10 µM | > 10 µM | > 10 µM | > 10 µM | > 10 µM
O=P(O)(O)C(O)(Cn1ccnc1)P(=O)(O)O [Zoledronic acid] | 107% | 103% | 102% | 104% | 97.4% | > 10 µM | > 10 µM | > 10 µM | > 10 µM | > 10 µM | > 10 µM | > 10 µM | > 10 µM | > 10 µM | > 10 µM | > 10 µM | > 10 µM | > 10 µM | > 10 µM | > 10 µM
